{"source": "patent US9273057B2", "about": "(Bristol-Myers Squibb Company, priority 2012, dated 2016)", "molecular_target": "CK2A1 (CK2α/β) (Homo sapiens, UniProt P68400)", "sequence (P68400 whole entry, species assumed)": "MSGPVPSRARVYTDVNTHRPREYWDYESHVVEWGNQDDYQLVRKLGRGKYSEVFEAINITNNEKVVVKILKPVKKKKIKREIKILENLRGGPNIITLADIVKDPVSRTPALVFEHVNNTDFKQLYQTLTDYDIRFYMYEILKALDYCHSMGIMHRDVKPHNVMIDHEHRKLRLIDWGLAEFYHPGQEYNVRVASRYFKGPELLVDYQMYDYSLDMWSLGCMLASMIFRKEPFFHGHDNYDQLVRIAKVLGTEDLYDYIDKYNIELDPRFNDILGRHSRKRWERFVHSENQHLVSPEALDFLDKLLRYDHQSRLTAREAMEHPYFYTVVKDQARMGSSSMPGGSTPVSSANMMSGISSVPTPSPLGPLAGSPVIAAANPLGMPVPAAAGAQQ", "sequence (P67870 whole entry partner, species assumed)": "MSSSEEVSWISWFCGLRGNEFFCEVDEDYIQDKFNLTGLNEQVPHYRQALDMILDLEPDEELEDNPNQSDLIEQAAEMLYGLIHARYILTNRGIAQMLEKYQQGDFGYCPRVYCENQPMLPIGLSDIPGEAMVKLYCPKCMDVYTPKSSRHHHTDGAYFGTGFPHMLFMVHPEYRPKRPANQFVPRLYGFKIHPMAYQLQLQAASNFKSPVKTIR", "assay": "CK2 kinase assay, CK2A1 (CK2α/β)", "format": "biochemical", "conditions": "Table A; read-out: CK2A1 (CK2α/β) (IC50)", "data": [{"smiles": "CC(CC(C)c1cc(Cl)c(Nc2nc(NC3CC3)c3ncc(C#N)n3n2)cc1C#N)NCC(F)(F)F", "note": "(stereo not shown) [Example 732, 2-((2-chloro-5-cyano-4-(4-((2,2,2-trifluoroethyl)amino)pentan-2-yl)phenyl)amino)-4-(cyclopropylamino)imidazo[2,1-f][1,2,4]triazine-7-carbonitrile]", "values": [{"measurement": "IC50", "value": 25.4, "unit": "nM"}]}, {"smiles": "CNC(C)CC(C)c1cc(Cl)c(Nc2nc(NC3CC3)c3ncc(C#N)n3n2)cc1C#N", "note": "(stereo not shown) [Example 733, 2-({2-chloro-5-cyano-4-[4-(methylamino)pentan-2-yl]phenyl}amino)-4-(cyclopropylamino)imidazo [2,1-f][1,2,4]triazine-7-carbonitrile]", "values": [{"measurement": "IC50", "value": 2.24, "unit": "nM"}]}, {"smiles": "CC(CC(C)N1CC(C)(O)C1)c1cc(Cl)c(Nc2nc(NC3CC3)c3ncc(C#N)n3n2)cc1C#N", "note": "(stereo not shown) [Example 736, 2-({2-chloro-5-cyano-4-[4-(3-hydroxy-3-methylazetidin-1-yl)pentan-2-yl]phenyl}amino)-4-(cyclopropylamino)imidazo [2,1-f][1,2,4]triazine-7-carbonitrile]", "values": [{"measurement": "IC50", "value": 4.86, "unit": "nM"}]}, {"smiles": "N#Cc1cc(Nc2nc(NC3CC3)c3ncc(C#N)n3n2)c(Cl)c(C(F)(F)CO)c1", "note": "[Example 737, 2-((2-chloro-5-cyano-3-(1,1-difluoro-2-hydroxyethyl)phenyl)amino)-4-(cyclopropylamino)imidazo[2,1-f][1,2,4]triazine-7-carbonitrile]", "values": [{"measurement": "IC50", "value": 0.38, "unit": "nM"}]}, {"smiles": "CN1CCN(CCC(F)(F)c2cc(C#N)cc(Nc3nc(NC4CC4)c4ncc(C#N)n4n3)c2Cl)CC1", "note": "[Example 738, 2-((2-chloro-5-cyano-3-(1,1-difluoro-3-(4-methylpiperazin-1-yl)propyl)phenyl)amino)-4-(cyclopropylamino)imidazo[2,1-f][1,2,4]triazine-7-carbonitrile]", "values": [{"measurement": "IC50", "value": 0.27, "unit": "nM"}]}, {"smiles": "CCNc1nc(Nc2cc(C#N)cc(N3CC[C@@H](NC(=O)OC)C(=O)C3)c2Cl)nn2c(C#N)cnc12", "note": "[Example 740, (R)-methyl (1-(2-chloro-5-cyano-3-((7-cyano-4-(ethylamino)imidazo[2,1-f][1,2,4]triazin-2-yl)amino)phenyl)-3-oxopiperidin-4-yl)carbamate]", "values": [{"measurement": "IC50", "value": 1.74, "unit": "nM"}]}, {"smiles": "CCNc1nc(Nc2cc(C#N)cc(N3CC[C@@H](NC(=O)OC)[C@H](NC4COC4)C3)c2Cl)nn2c(C#N)cnc12", "note": "[Example 746, methyl ((3R,4R)-1-(2-chloro-5-cyano-3-((7-cyano-4-(ethylamino)imidazo[2,1-f][1,2,4]triazin-2-yl)amino)phenyl)-3-(oxetan-3-ylamino)piperidin-4-yl)carbamate]", "values": [{"measurement": "IC50", "value": 1.36, "unit": "nM"}]}, {"smiles": "CCNc1nc(Nc2cc(C#N)cc(N3CC[C@@H](NC(=O)OC)[C@@H](NC4COC4)C3)c2Cl)nn2c(C#N)cnc12", "note": "[Example 747, methyl ((3S,4R)-1-(2-chloro-5-cyano-3-((7-cyano-4-(ethylamino)imidazo[2,1-f][1,2,4]triazin-2-yl)amino)phenyl)-3-(oxetan-3-ylamino)piperidin-4-yl)carbamate]", "values": [{"measurement": "IC50", "value": 1.62, "unit": "nM"}]}, {"smiles": "COC(=O)N[C@H]1CCN(c2cc(C#N)cc(Nc3nc(NC4CC4)c4ncc(C#N)n4n3)c2Cl)C[C@@H]1NCC(F)F", "note": "[Example 748, methyl ((3S,4S)-1-(2-chloro-5-cyano-3-((7-cyano-4-(cyclopropylamino)imidazo[2,1-f][1,2,4]triazin-2-yl)amino)phenyl)-3-((2,2-difluoroethyl)amino)piperidin-4-yl)carbamate]", "values": [{"measurement": "IC50", "value": 1.4, "unit": "nM"}]}, {"smiles": "COC(=O)N[C@H]1CCN(c2cc(C#N)cc(Nc3nc(NC4CC4)c4ncc(C#N)n4n3)c2Cl)C[C@H]1NCC(F)F", "note": "[Example 749, methyl ((3R,4S)-1-(2-chloro-5-cyano-3-((7-cyano-4-(cyclopropylamino)imidazo[2,1-f][1,2,4]triazin-2-yl)amino)phenyl)-3-((2,2-difluoroethyl)amino)piperidin-4-yl)carbamate]", "values": [{"measurement": "IC50", "value": 0.7, "unit": "nM"}]}, {"smiles": "CCNc1nc(Nc2cc(C#N)cc(N3CC[C@@H](NC(=O)OC)[C@H](N(C)C4COC4)C3)c2Cl)nn2c(C#N)cnc12", "note": "[Example 750, methyl ((3R,4R)-1-(2-chloro-5-cyano-3-((7-cyano-4-(ethylamino)imidazo[2,1-f][1,2,4]triazin-2-yl)amino)phenyl)-3-(methyl(oxetan-3-yl)amino)piperidin-4-yl)carbamate]", "values": [{"measurement": "IC50", "value": 0.9, "unit": "nM"}]}, {"smiles": "CCNc1nc(Nc2cc(C#N)cc(N3CC[C@@H](NC(=O)OC)[C@@H](N(C)C4COC4)C3)c2Cl)nn2c(C#N)cnc12", "note": "[Example 751, methyl ((3S,4R)-1-(2-chloro-5-cyano-3-((7-cyano-4-(ethylamino)imidazo[2,1-f][1,2,4]triazin-2-yl)amino)phenyl)-3-(methyl(oxetan-3-yl)amino)piperidin-4-yl)carbamate]", "values": [{"measurement": "IC50", "value": 1.3, "unit": "nM"}]}, {"smiles": "COC(=O)N[C@H]1CCN(c2cc(C#N)cc(Nc3nc(NC4CC4)c4ncc(C#N)n4n3)c2Cl)CC1N[C@@H](C)C(N)=O", "note": "(stereo partly drawn) [Example 753, methyl N-[(4S)-3-{[(1S)-1-carbamoylethyl]amino}-1-(2-chloro-5-cyano-3-{[7-cyano-4-(cyclopropylamino)imidazo [2,1-f][1,2,4]triazin-2-yl]amino}phenyl)piperidin-4-yl]carbamate]", "values": [{"measurement": "IC50", "value": 2.46, "unit": "nM"}]}, {"smiles": "COC(=O)N[C@H]1CCN(c2cc(C#N)cc(Nc3nc(NC4CC4)c4ncc(C#N)n4n3)c2Cl)C[C@H]1NC1(C)COC1", "note": "[Example 754, methyl N-[(3R,4S)-1-(2-chloro-5-cyano-3-{[7-cyano-4-(cyclopropylamino)imidazo [2,1-f][1,2,4]triazin-2-yl]amino}phenyl)-3-[(3-methyloxetan-3-yl)amino]piperidin-4-yl]carbamate]", "values": [{"measurement": "IC50", "value": 2.93, "unit": "nM"}]}, {"smiles": "COC(=O)N[C@H]1CCN(c2cc(C#N)cc(Nc3nc(NC4CC4)c4ncc(C#N)n4n3)c2Cl)C[C@H]1NC(C)C", "note": "[Example 756, methyl N-[(3R,4S)-1-(2-chloro-5-cyano-3-{[7-cyano-4-(cyclopropylamino)imidazo [2,1-f][1,2,4]triazin-2-yl]amino}phenyl)-3-[(propan-2-yl)amino]piperidin-4-yl]carbamate]", "values": [{"measurement": "IC50", "value": 4.43, "unit": "nM"}]}, {"smiles": "CCNc1nc(Nc2cc(C#N)cc(N3CC[C@@H](NC(=O)OC)[C@H](N[C@H](C)C(N)=O)C3)c2Cl)nn2c(C#N)cnc12", "note": "[Example 758, methl N-[(3R,4R)-3-{[(1S)-1-carbamoylethyl]amino}-1-(2-chloro-5-cyano-3-{[7-cyano-4-(ethylamino)imidazo[2,1-f][1,2,4]triazin-2-yl]amino}phenyl)piperidin-4-yl]carbamate]", "values": [{"measurement": "IC50", "value": 1.4, "unit": "nM"}]}, {"smiles": "CCNc1nc(Nc2cc(C#N)cc(N3CC[C@@H](NC(=O)OC)[C@@H](NCC(O)C(F)(F)F)C3)c2Cl)nn2c(C#N)cnc12", "note": "(stereo partly drawn) [Example 761, methyl N-[(3S,4R)-1-(2-chloro-5-cyano-3-{[7-cyano-4-(ethylamino)imidazo[2,1-f][1,2,4]triazin-2-yl]amino}phenyl)-3-[(3,3,3-trifluoro-2-hydroxypropyl)amino]piperidin-4-yl]carbamate]", "values": [{"measurement": "IC50", "value": 10, "unit": "nM"}]}, {"smiles": "COC(=O)N[C@H]1CCN(c2cc(C#N)cc(Nc3nc(NC4CC4)c4ncc(C#N)n4n3)c2Cl)CC1N(C)C1COC1", "note": "(stereo partly drawn) [Example 763, methyl N-[(4S)-1-(2-chloro-5-cyano-3-{[7-cyano-4-(cyclopropylamino)imidazo [2,1-f][1,2,4]triazin-2-yl]amino}phenyl)-3-[methyl(oxetan-3-yl)amino]piperidin-4-yl]carbamate]", "values": [{"measurement": "IC50", "value": 1.35, "unit": "nM"}]}, {"smiles": "COC(=O)N[C@H]1CCN(c2cc(C#N)cc(Nc3nc(NC4CC4)c4ncc(C#N)n4n3)c2Cl)C[C@@H]1N(C)CC(C)(C)O", "note": "[Example 765, methyl N-[(3S,4S)-1-(2-chloro-5-cyano-3-{[7-cyano-4-(cyclopropylamino)imidazo [2,1-f][1,2,4]triazin-2-yl]amino}phenyl)-3-[(2-hydroxy-2-methylpropyl)(methyl)amino]piperidin-4-yl] carbamate]", "values": [{"measurement": "IC50", "value": 23.2, "unit": "nM"}]}, {"smiles": "COC(=O)N[C@H]1CCN(c2cc(C#N)cc(Nc3nc(NC4CC4)c4ncc(C#N)n4n3)c2Cl)C[C@H]1N(C)CC#N", "note": "[Example 766, methyl N-[(3R,4S)-1-(2-chloro-5-cyano-3-{[7-cyano-4-(cyclopropylamino)imidazo [2,1-f][1,2,4]triazin-2-yl]amino}phenyl)-3-[(cyanomethyl)(methyl)amino]piperidin-4-yl]carbamate]", "values": [{"measurement": "IC50", "value": 6, "unit": "nM"}]}, {"smiles": "CCNc1nc(Nc2cc(C#N)cc(N3CC[C@@H](NC(=O)OC)[C@H](N(C)[C@@H](C)C(N)=O)C3)c2Cl)nn2c(C#N)cnc12", "note": "[Example 768, methyl N-[(3R,4R)-3-{[(1S)-1-carbamoylethyl](methyl)amino}-1-(2-chloro-5-cyano-3-{[7-cyano-4-(ethylamino)imidazo[2,1-f] [1,2,4]triazin-2-yl]amino}phenyl)piperidin-4-yl] carbamate]", "values": [{"measurement": "IC50", "value": 4, "unit": "nM"}]}, {"smiles": "CCNc1nc(Nc2cc(C#N)cc(N3CC[C@@H](NC(=O)OC)[C@H](N(C)CC(C)(C)O)C3)c2Cl)nn2c(C#N)cnc12", "note": "[Example 770, methyl N-[(3R,4R)-1-(2-chloro-5-cyano-3-{[7-cyano-4-(ethylamino)imidazo[2,1-f][1,2,4]triazin-2-yl]amino}phenyl)-3-[(2-hydroxy-2-methylpropyl)(methyl)amino]piperidin-4-yl] carbamate]", "values": [{"measurement": "IC50", "value": 9, "unit": "nM"}]}, {"smiles": "CCNc1nc(Nc2cc(C#N)cc(N3CC[C@@H](NC(=O)OC)[C@@H](N(C)CC(C)(C)O)C3)c2Cl)nn2c(C#N)cnc12", "note": "[Example 771, methyl N-[(3S,4R)-1-(2-chloro-5-cyano-3-{[7-cyano-4-(ethylamino)imidazo[2,1-f][1,2,4]triazin-2-yl]amino}phenyl)-3-[(2-hydroxy-2-methylpropyl)(methyl)amino]piperidin-4-yl] carbamate]", "values": [{"measurement": "IC50", "value": 7, "unit": "nM"}]}, {"smiles": "CCNc1nc(Nc2cc(C#N)cc(N3CC[C@@H](NC(=O)OC)C(N(C)C[C@H](O)CO)C3)c2Cl)nn2c(C#N)cnc12", "note": "(stereo partly drawn) [Example 772, methyl N-[(4R)-1-(2-chloro-5-cyano-3-{[7-cyano-4-(ethylamino)imidazo[2,1-f][1,2,4]triazin-2-yl]amino}phenyl)-3-{[(2S)-2,3-dihydroxypropyl](methyl)amino}piperidin-4-yl]carbamate]", "values": [{"measurement": "IC50", "value": 14.1, "unit": "nM"}]}, {"smiles": "CCNc1nc(Nc2cc(C#N)cc(N3C[C@@H]4C[C@H]3CN4C)c2Cl)nn2c(C#N)cnc12", "note": "[Example 773, 2-((2-chloro-5-cyano-3-((1S,4S)-5-methyl-2,5-diazabicyclo[2.2.1]heptan-2-yl)phenyl)amino)-4-(ethylamino)imidazo[2,1-f][1,2,4]triazine-7-carbonitrile]", "values": [{"measurement": "IC50", "value": 0.64, "unit": "nM"}]}]}
